Laboratory results as given in patent publication US5677349A, “Agmatine for the treatment of neurotrauma and neurodegenerative diseases” (priority 1995, dated 1997).
Where a name gives a salt, the structure may show the parent alone. Read-outs that look alike come from different tables or passages of the source.

Legend:
[1] = Effect on nerve cell survival and toxicity in culture (dissociated neonatal rat cerebellum); format: cell-based; details: rat, cerebellar nerve cells
Description: (§1) A concentration-dependent (dose-response) effect on nerve cell survival was determined for each compound at a concentration range of 0.001-5000 micromolar (μM). The compounds were added to 3-day-old cultures and the effect was examined 24 hours later.
(§2) Nerve cell survival was evaluated by phase contrast microscopy and trypan blue exclusion staining.
(§3) The results, summarized in Table 1, show the compound concentrations at which 20% or more cells survived (Survival) relative to controls, and at which 50% of the cells died (TD50) when compared to controls. Control cultures were grown in enriched medium alone and represent 100% values.

[2] = test system: nerve cell survival after NMDA neurotoxic challenge; assay: Reversal of N-methyl-D-aspartate induced cell death in culture; details: for Percent Protection: after NMDA, survival minus NMDA effect
Description: The cerebellum is aseptically dissociated from 6 or 7-day old rat pups and placed in a 15 ml sterile plastic conical tube containing 3 ml of Dulbecco's modified Eagle's medium containing high glucose concentration ([…]), 2 Mm (v/v) L-glutamine and an antibiotic mixture. The cerebella are then dissociated after 20-25 passages through a sterile 13 gauge, 10 cm long stainless steel needle attached to a 5 ml syringe with an inserted 45 micrometer pore nylon sieve. The dissociated cells are centrifuged at 200 g for 5 minutes. The supernatant is discarded and the cells resuspended in medium enriched with 15% (v/v) heat inactivated fetal calf serum. Cell viability is determined by the trypan blue exclusion test.
Cells are plated at a density of 200/mm^2 on poly-L-lysine coated surfaces which are prepared at least one hour in advance of plating by covering the surfaces (plastic Petri dishes or glass coverslips) with sterile distilled water solution containing 15 micrograms/ml poly-L-lysine, and washing in sterile water just prior to use. The plated cells are covered with enriched medium and incubated at 37° C. in an atmosphere of 5% CO2 in air and 97% humidity. After three days in culture, the media is replaced with media containing the desired compound. Each compound is tested in duplicate and each experiment repeated at least once.
Four groups were run in each set of experiments:
1. Control, consisting of cells grown in enriched media alone;
2. N-methyl-D-aspartate (NMDA, 1 Mm for 3 hours) as the cytotoxic challenge;
3. Test compound added after the NMDA challenge;
4. Positive control, spermine or spermidine (0.01 μM) after NMDA.
The number of surviving cells was examined 24 hours after the challenge. Surviving cells in culture are measured relative to control (100%) as described above. Percent Protection is the cell survival for the test compound minus the NMDA effect. […] The Effective Protection value was calculated as the percent of the Percent Protection (X) divide by the maximal protection value (e.g. X×100/70).

[3] = test system: pyramidal neurons of the CA1 layer of the anterior hippocampus; assay: animal or person; format: in vivo
Description: Male mongolian gerbils, aged 2.5-5 months, housed 4-8 in a cage, are supplied freely with food and water and maintained at 24° C. with a 12 hour day/night cycle. For surgery, the animals are anesthetized with halothane (1.5% in 100% O2) and the common carotid arteries exposed bilaterally through a midline ventral neck incision. Each artery is clamped for 5 minutes with aneurysm clips to produce global brain ischemia. The anesthesia is discontinued upon clamping. After 5 minutes the clamps are removed and the wound closed with skin clips
For treatment, the test compound or saline (0.9% NaCl, vehicle) are injected intraperitoneally (ip) in a volume of 50 microliters of solvent per 10 g body weight. The first injection is given 5 minutes after clamp removal, and thereafter daily for the next 2 post-operative days (total of 3 injections).
Four general groups, each of 4-8 animals were compare:
1. Control (sham, or unoperated and vehicle treated);
2. Ischemia, untreated or vehicle treated;
3. Ischemia, test compound treated, one sub-group per concentration tested;
4. Ischemia and pentobarbital (40 mg/kg) as positive control.
Analysis of neuronal damage was performed 14 days post-ischemia by counting pyramidal neurons throughout the CA1 layer of the anterior hippocampus in 4 micrometer thick (paraffin) coronal brain sections, stained with hematoxylin eosin. Values of cell numbers in the hippocampi of individual gerbils were expressed as percent of intact controls (control cell counts were 275±25 cells/mm^2).
Percent Protection values represent the fraction of hippocampi protected from ischemia in a group of animals treated with the stated dose of compound.

[4] = test system: ischemia-induced nerve cell death; details: gerbils; Gilad et al. 1989, 1991, 1992; cited from earlier work
[5] = test system: cell proliferation; assay: Toxicity and cell proliferation, general statement; format: cell-based
[6] = test system: nicotine receptors; details: background; cited from earlier work
[7] = test system: NMDA receptors; details: background; cited from earlier work
[8] = test system: intracellular imidazoline receptors; details: background; cited from earlier work
[9] = test system: ADP-ribosylation of proteins; details: acts as ADP-ribose acceptor; background; cited from earlier work
[10] = animals; background; cited from earlier work
[11] = test system: nerve cell survival; assay: Effect on nerve cell survival and toxicity in culture (dissociated neonatal rat cerebellum); format: cell-based; details: 24 hours
Description: as §1, §2, §3

[12] = TD50 (concentration at which 50% of the cells died)
[13] = Rattus norvegicus, 24 h, read-out: Effective Protection
[14] = Rattus norvegicus, 24 h, read-out: Surviving Cells in Culture
[15] = Meriones unguiculatus, Pyramidal neuron, ip, 336 h, read-out: Percent Protection
[16] = 24 hours, 3-day-old cultures, read-out: TD50 (concentration at which 50% of the cells died)

Row | Structure (SMILES) | CC50 at 24 h [1, 12] [µM] | Percent Protection ([2]; 0.01 μM) [%] | inhibition at 0.01 µM [2, 13] [%] | viability at 0.01 µM [2, 14] [%] | responders at 10 mg/kg [3, 15] [%] | CC50 at 24 h [1, 16] [µM] | Percent Protection ([2]; 10 μM) [%] | Percent Protection ([2]; 50 μM) [%] | inhibition at 10 µM [2, 13] [%] | inhibition at 50 µM [2, 13] [%] | viability at 10 µM [2, 14] [%] | viability at 50 µM [2, 14] [%] | other results
1 | NCCCCN [Putrescine] | 300 | 0 | 0 | 30 | 35 |  |  |  |  |  |  |  | Percent Protection ([2]; 0.005 μM): 2%; inhibition at 0.005 µM [2, 13]: 3%; viability at 0.005 µM [2, 14]: 32%; Effect against ischemia-induced nerve cell death [4]: protecting against ischemia-induced nerve cell death in gerbils
2 | CNC1(C)C2CCC(C2)C1(C)C (centres unmarked) [Mecamylamine] | 500 |  |  |  | 40 |  |  |  |  |  |  |  | Percent Protection ([2]; 25 μM): 37%; inhibition at 25 µM [2, 13]: 53%; viability at 25 µM [2, 14]: 67%
3 | N=C(N)NCCCCN [Agmatine, agmatine] |  |  |  |  | 20 | 500 | 35 | 51 | 50 | 73 | 65 | 81 | responders at 50 mg/kg [3, 15]: 50%; responders at 100 mg/kg [3, 15]: 75%; Toxicity [5]: relatively non-toxic; Cell proliferation ([5]; at some concentrations): accelerates cell proliferation; Interaction with nicotine receptors [6]: interaction with membrane receptors; Interaction with NMDA receptors [7]: interaction with membrane receptors; Interaction with intracellular imidazoline receptors [8]: interaction with membrane receptors; Effect on ADP-ribosylation of proteins [9]: inhibit ADP-ribosylation of proteins; Insulin-like effects [10]: produces insulin-like effects in animals
4 | C1CN2CCC1CC2 [Quinuclidine] |  |  |  |  | 15 | 100 | 10 |  | 14 |  | 40 |  | Percent Protection ([2]; 1 μM): 5%; inhibition at 1 µM [2, 13]: 7%; viability at 1 µM [2, 14]: 35%
5 | C1C2CC3CC1CC(C2)C3 [Adamantane] | 1000 |  |  |  |  |  | 13 | 20 | 19 | 29 | 43 | 50 | responders at 50 mg/kg [3, 15]: 23%
6 | NCCCNCCCCNCCCN [Spermine] |  | 38 | 54 | 68 | 65 |  |  |  |  |  |  |  | CC50 at 24 h [1]: 2 µM; Percent Protection ([2]; 0.005 μM): -5%; viability at 0.005 µM [2, 14]: 25%; Effect against ischemia-induced nerve cell death [4]: protecting against ischemia-induced nerve cell death in gerbils
7 | NCCCCNCCCN [Spermidine] |  | 48 | 69 | 78 | 50 | 2 |  |  |  |  |  |  | Percent Protection ([2]; 0.005 μM): 0%; inhibition at 0.005 µM [2, 13]: 0%; viability at 0.005 µM [2, 14]: 30%; Effect against ischemia-induced nerve cell death [4]: protecting against ischemia-induced nerve cell death in gerbils
8 | CCCC(C)C1(CC)C(=O)NC(=O)NC1=O (centres unmarked) [Pentobarbital, pentobarbital] |  |  |  |  |  |  |  |  |  |  |  |  | responders at 40 mg/kg ([3]; Meriones unguiculatus, Pyramidal neuron, 336 h, read-out: Percent Protection): 87%
9 | NCCCNCCCCNCCCN1c2ccccc2Sc2ccc(Cl)cc21 [G103, 2-chloro-N-[3-(8-spermidinyl)]-10H-Phenothiazine-10-propanamine.3 HCl] |  | 25 | 36 | 55 |  | 2 |  |  |  |  |  |  | Percent Protection ([2]; 0.10 μM): 2%; Percent Protection ([2]; 1 μM): -10%; inhibition at 0.1 µM [2, 13]: 3%; viability at 0.1 µM [2, 14]: 32%; viability at 1 µM [2, 14]: 20%; lethality ([3]; 0.50 mg/kg ip, ischemic gerbils, n=5): lethal; responders at 0.01 mg/kg [3, 15]: 42%; responders at 0.1 mg/kg [3, 15]: 55%
10 | Clc1ccc2c(c1)Nc1ccccc1S2 [2-Cl-phenothiazine] | 5 |  |  |  | 65 |  | 15 | 32 | 21 | 46 | 45 | 62 | 
11 | Cl.Cl.NCCCCNCCCN1c2ccccc2Sc2ccc(Cl)cc21 [G102, 2-chloro-N-(4-aminobutyl)-10H-Phenothiazine-10-propanamine-2HCl] |  |  |  |  |  |  |  | 5 |  | 7 |  | 35 | Shape of dose-response curve for nerve cell survival [11]: U-shaped dose-response curve; Percent Protection ([2]; 1 μM): 40%; Percent Protection ([2]; 250 μM): 65%; inhibition at 1 µM [2, 13]: 57%; inhibition at 250 µM [2, 13]: 93%; viability at 1 µM [2, 14]: 70%; viability at 250 µM [2, 14]: 95%; toxic ([3]; 10 mg/kg ip, ischemic gerbils, n=10): 70%; responders at 1 mg/kg [3, 15]: 40%; responders at 5 mg/kg [3, 15]: 70%
